Measured values from US20030134292A1, “Thermostable DNA polymerases and methods of making same” (priority 2001, published 2003).

Columns and labels:
Type in all cases: biochemical
[1] = target: T1, Taq Δ271 F667Y (polymerase A) (Thermus aquaticus, UniProt P19821, F272M/F667Y); assay: DNA polymerase activity assay with detergent or additive, Taq Δ271 F667Y purified without detergent
T1 construct: made in house; host or cells: E. coli
Protocol: (§1) DNA polymerase activity was measured by running reactions of 50 μL containing 25 mM TAPS (tris-hydroxymethyl-methylaminopropane sulfonic acid) buffer, pH 9.3 (measured at 25° C.), 50 mM KCl, 2 mM MgCl2, 1 mM 2-mercaptoethanol, 0.2 mM each of dGTP, dCTP, dTTP, 0.2 mM [α-^33P]-dATP (0.05-0.1 Ci/mmol) and 0.4 mg/mL activated salmon sperm DNA. The reaction mixture (45 μL) was pre-heated to 74° C. and diluted polymerase (5 μL) added with thorough mixing. After 10 minutes of further incubation at 74° C., the reaction was stopped by the addition of 10 μL of 60 mM EDTA and the entire mixture placed at 0° C. Acid-precipitable radioactivity was determined on an aliquot ([…]) by diluting with 1 ml of 2 mM EDTA containing 0.05 mg/ml salmon sperm DNA and adding 1 mL of 20% (w/v) trichloroacetic acid, 2% (w/v) sodium pyrophosphate (Na4P2O7 10H2O) and incubating on ice for at least 15 minutes. Precipitated DNA was collected by filtering through 2.4 cm GFC filter disks (Schleichter and Schuell) and washed 7 times with 5ml of with 1 N HCl, 0.1 M sodium pyrophosphate. The filter was placed in 3 ml of aqueous scintillation counting fluid and ^33P-specific radioactivity determined by scintillation counting.
(§2) For the assays presented in Tables 5 and 6, the polymerase was diluted 10-5000 fold in a buffer containing 25 mM Tris-HCl pH 8.0, 50 mM KCl, 1 mM 2-mercaptoethanol, and the indicated concentration of detergent or other additive. Where possible, only reactions which incorporated 20- 100 pmol of dAMP in 10 minutes were used for calculation of activity.

[2] = target: T2, Taq Δ271 F667Y E681W (polymerase B) (Thermus aquaticus, UniProt P19821, E681W/F272M/F667Y); assay: DNA polymerase activity assay with detergent or additive, Taq Δ271 F667Y E681W purified without detergent
T2 construct: made in house; host or cells: E. coli
Protocol: as §1, §2

[3] = target: T3, Tth Δ273 F668Y (polymerase C) (Thermus thermophilus, UniProt P52028, F274M/F669Y); assay: DNA polymerase activity assay with detergent or additive, Tth Δ273 F668Y purified without detergent
T3 construct: made in house; host or cells: E. coli
Protocol: as §1, §2

[4] = additive final concentration 0.01% (w/v)
[5] = additive final concentration 0.05% (w/v)
[6] = additive final concentration 0.1% (w/v)
[7] = additive final concentration 0.001% (w/v) in assay reaction mixture
[8] = additive final concentration 0.2% (w/v)

T1 sequence (P19821 272-832 F272M/F667Y): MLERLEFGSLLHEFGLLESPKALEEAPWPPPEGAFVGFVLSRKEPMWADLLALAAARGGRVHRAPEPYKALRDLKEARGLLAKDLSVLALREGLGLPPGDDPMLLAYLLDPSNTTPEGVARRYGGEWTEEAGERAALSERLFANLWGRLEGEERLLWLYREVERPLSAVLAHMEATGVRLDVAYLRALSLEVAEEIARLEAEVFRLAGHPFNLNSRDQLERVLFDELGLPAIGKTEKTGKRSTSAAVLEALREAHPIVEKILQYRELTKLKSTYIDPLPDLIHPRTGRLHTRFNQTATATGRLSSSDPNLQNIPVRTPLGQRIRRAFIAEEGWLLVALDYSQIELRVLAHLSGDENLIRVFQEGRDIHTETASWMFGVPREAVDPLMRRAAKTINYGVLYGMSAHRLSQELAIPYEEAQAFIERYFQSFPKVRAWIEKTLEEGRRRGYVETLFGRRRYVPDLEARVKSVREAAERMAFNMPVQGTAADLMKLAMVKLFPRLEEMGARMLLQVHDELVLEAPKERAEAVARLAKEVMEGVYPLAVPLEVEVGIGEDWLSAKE
T3 sequence (P52028 274-834 F274M/F669Y): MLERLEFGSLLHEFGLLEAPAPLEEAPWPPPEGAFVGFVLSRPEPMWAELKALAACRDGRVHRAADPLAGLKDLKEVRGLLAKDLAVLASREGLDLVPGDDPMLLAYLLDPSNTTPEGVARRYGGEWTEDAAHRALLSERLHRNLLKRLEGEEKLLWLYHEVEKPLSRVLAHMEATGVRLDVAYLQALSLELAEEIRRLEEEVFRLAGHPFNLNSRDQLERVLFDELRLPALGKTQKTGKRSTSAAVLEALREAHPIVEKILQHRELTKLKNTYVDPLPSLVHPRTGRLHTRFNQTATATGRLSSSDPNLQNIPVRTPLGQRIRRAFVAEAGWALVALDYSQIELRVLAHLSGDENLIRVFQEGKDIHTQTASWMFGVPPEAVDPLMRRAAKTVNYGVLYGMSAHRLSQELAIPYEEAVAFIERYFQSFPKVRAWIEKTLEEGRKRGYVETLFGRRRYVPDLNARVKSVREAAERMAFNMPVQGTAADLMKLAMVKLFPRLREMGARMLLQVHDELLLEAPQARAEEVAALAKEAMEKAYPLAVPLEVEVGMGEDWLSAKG
T2 sequence (P19821 272-832 F272M/F667Y/E681W): as the sequence (P19821 272-832 F272M/F667Y) above, with E410W counted along it

Compound	Taq Δ271 F667Y activity relative to 0.5% each NP-40 and Tween 20 [1, 4]	Taq Δ271 F667Y activity relative to 0.5% each NP-40 and Tween 20 [1, 5]	Taq Δ271 F667Y activity relative to 0.5% each NP-40 and Tween 20 [1, 6]	Taq Δ271 F667Y E681W activity relative to 0.5% each NP-40 and Tween 20 [2, 4]	Taq Δ271 F667Y E681W activity relative to 0.5% each NP-40 and Tween 20 [2, 5]	Taq Δ271 F667Y E681W activity relative to 0.5% each NP-40 and Tween 20 [2, 6]	Tth Δ273 F668Y activity relative to 0.5% each NP-40 and Tween 20 [3, 4]	Tth Δ273 F668Y activity relative to 0.5% each NP-40 and Tween 20 [3, 5]	Tth Δ273 F668Y activity relative to 0.5% each NP-40 and Tween 20 [3, 6]	other results
Sodium Deoxycholate	− − − (Activity < 20%)	− − − (Activity < 20%)	− − − (Activity < 20%)	− − − (Activity < 20%)	− − − (Activity < 20%)	− − − (Activity < 20%)	− − − (Activity < 20%)	− − − (Activity < 20%)	− − − (Activity < 20%)	
CCCCCCCCO[C@@H]1O[C@H](CO)[C@@H](O)[C@H](O)[C@H]1O [Octyl Glucopyranoside, n-octyl-β-D-glucopyranoside]	− − − (Activity < 20%)		− − (Activity 20-50%)	− − − (Activity < 20%)		+ + + (Activity > 80% (relative to activity using 0.5% each NP-40 and Tween 20))	− − − (Activity < 20%)		+ + + (Activity > 80% (relative to activity using 0.5% each NP-40 and Tween 20))	Polymerase B Activity (%) ([2]; detergent 0.1% (w/v)): 1%; Polymerase C Activity (%) ([3]; detergent 0.1% (w/v)): 79.7%
C[C@H](CCC(=O)NCCC[N+](C)(C)CCCS(=O)(=O)[O-])[C@H]1CC[C@H]2[C@@H]3[C@H](O)C[C@@H]4C[C@H](O)CC[C@]4(C)[C@H]3C[C@H](O)[C@]12C [CHAPS, 3-[(3-Cholamidopropyl)dimethylammonio]-1-propanesulfonate]	− − (Activity 20-50%)	− (Activity 50-60%)	+ (Activity 60-70%)	− − − (Activity < 20%)	− − (Activity 20-50%)	− (Activity 50-60%)	− (Activity 50-60%)	− − (Activity 20-50%)	− − (Activity 20-50%)	
CCCCCCCCCC(=O)N(C)C[C@H](O)[C@@H](O)[C@H](O)[C@H](O)CO [Mega-10, D-decanoyl-N-methyl glucamide]	− − (Activity 20-50%)	+ + (Activity 70-80%)		− − − (Activity < 20%)	+ + + (Activity > 80% (relative to activity using 0.5% each NP-40 and Tween 20))		+ + (Activity 70-80%)	− − (Activity 20-50%)		Taq Δ271 F667Y activity relative to 0.5% each NP-40 and Tween 20 [1, 7]: − − − (Activity < 20%); Polymerase A Activity (%) ([1]; detergent 0.05% (w/v)): 94%; Polymerase B Activity (%) ([2]; detergent 0.05% (w/v)): 73%; Tth Δ273 F668Y activity relative to 0.5% each NP-40 and Tween 20 [3, 7]: − − (Activity 20-50%); Polymerase C Activity (%) ([3]; detergent 0.05% (w/v)): 100%
CCCCCCCCCCCCO[C@@H]1O[C@H](CO)[C@@H](O[C@H]2O[C@H](CO)[C@@H](O)[C@H](O)[C@H]2O)[C@H](O)[C@H]1O [n-Dodecyl-β-D-Maltoside, n-dodecyl-β-D-maltoside]	+ ++			+ + + (Activity > 80% (relative to activity using 0.5% each NP-40 and Tween 20))		+ (Activity 60-70%)	+ + + (Activity > 80% (relative to activity using 0.5% each NP-40 and Tween 20))			Polymerase A Activity (%) ([1]; detergent 0.01% (w/v)): 98.8%; Taq Δ271 F667Y E681W activity relative to 0.5% each NP-40 and Tween 20 [2, 7]: + (Activity 60-70%); Taq Δ271 F667Y E681W activity relative to 0.5% each NP-40 and Tween 20 ([2]; additive final concentration 0.02% (w/v)): + (Activity 60-70%); Polymerase B Activity (%) ([2]; detergent 0.01% (w/v)): 92.3%; Polymerase C Activity (%) ([3]; detergent 0.01% (w/v)): 80.8%
CC1=NCC[C@@H](C(=O)O)N1 [Ectoin]	− − − (Activity < 20%)		− − − (Activity < 20%)	− − − (Activity < 20%)		− − − (Activity < 20%)	− − − (Activity < 20%)		− − − (Activity < 20%)	Taq Δ271 F667Y activity relative to 0.5% each NP-40 and Tween 20 [1, 7]: − − − (Activity < 20%); Taq Δ271 F667Y E681W activity relative to 0.5% each NP-40 and Tween 20 [2, 7]: − − − (Activity < 20%); Tth Δ273 F668Y activity relative to 0.5% each NP-40 and Tween 20 [3, 7]: − − − (Activity < 20%)
CCCCCCCCO[C@@H]1O[C@H](CO)[C@H](O)[C@H](O)[C@H]1O [N-octyl β-D-galactopyranoside]	− − − (Activity < 20%)	− − (Activity 20-50%)		− − − (Activity < 20%)		− (Activity 50-60%)	− − (Activity 20-50%)	+ + + (Activity > 80% (relative to activity using 0.5% each NP-40 and Tween 20))		Taq Δ271 F667Y activity relative to 0.5% each NP-40 and Tween 20 [1, 7]: − − − (Activity < 20%); Taq Δ271 F667Y E681W activity relative to 0.5% each NP-40 and Tween 20 ([2]; additive final concentration 0.25% (w/v)): + (Activity 60-70%); Taq Δ271 F667Y E681W activity relative to 0.5% each NP-40 and Tween 20 ([2]; additive final concentration 0.5% (w/v)): − − − (Activity < 20%); Tth Δ273 F668Y activity relative to 0.5% each NP-40 and Tween 20 [3, 7]: − − (Activity 20-50%)
C[C@H](CCC(=O)NCCC[N+](C)(C)CC(O)CS(=O)(=O)[O-])[C@H]1CC[C@H]2[C@@H]3[C@H](O)C[C@@H]4C[C@H](O)CC[C@]4(C)[C@H]3C[C@H](O)[C@]12C (some centres unmarked) [CHAPSO, 3-[(3-Cholamidopropyl)dimethylammonio]-2-hydroxy-1-propanesulfonate]	− − − (Activity < 20%)	− − (Activity 20-50%)	+ (Activity 60-70%)	− − − (Activity < 20%)	− − (Activity 20-50%)	− − (Activity 20-50%)	− (Activity 50-60%)	− − (Activity 20-50%)	− − (Activity 20-50%)	
CCCCCCCCC(=O)N(C)C[C@H](O)[C@@H](O)[C@H](O)[C@H](O)CO [Mega-9, Nonyl-N-methylglucamide]	− − − (Activity < 20%)	− − (Activity 20-50%)		− − − (Activity < 20%)	+ + (Activity 70-80%)		− − (Activity 20-50%)	+ + + (Activity > 80% (relative to activity using 0.5% each NP-40 and Tween 20))		Polymerase A Activity (%) ([1]; detergent 0.05% (w/v)): 71.2%; Polymerase B Activity (%) ([2]; detergent 0.05% (w/v)): 82%; Polymerase C Activity (%) ([3]; detergent 0.05% (w/v)): 74%
CCCCCCCCCC[N+](C)(C)CCCS(=O)(=O)[O-] [Zwittergent 3-10]		− − (Activity 20-50%)	− − (Activity 20-50%)		− − − (Activity < 20%)	− − (Activity 20-50%)		− − (Activity 20-50%)	+ (Activity 60-70%)	Taq Δ271 F667Y activity relative to 0.5% each NP-40 and Tween 20 [1, 8]: − (Activity 50-60%); Taq Δ271 F667Y E681W activity relative to 0.5% each NP-40 and Tween 20 [2, 8]: − − (Activity 20-50%); Tth Δ273 F668Y activity relative to 0.5% each NP-40 and Tween 20 [3, 8]: + (Activity 60-70%)
CCCCCCCC[N+](C)(C)CCCS(=O)(=O)[O-] [Zwittergent 3-08]		− − − (Activity < 20%)	− − (Activity 20-50%)		− − − (Activity < 20%)	− − (Activity 20-50%)		− − (Activity 20-50%)	− (Activity 50-60%)	Taq Δ271 F667Y activity relative to 0.5% each NP-40 and Tween 20 [1, 8]: − − (Activity 20-50%); Taq Δ271 F667Y E681W activity relative to 0.5% each NP-40 and Tween 20 [2, 8]: − − (Activity 20-50%); Tth Δ273 F668Y activity relative to 0.5% each NP-40 and Tween 20 [3, 8]: + (Activity 60-70%)
